From patent US20240140941A1, “DERIVATIVE OF 2,5-DIKETOPIPERAZINE COMPOUND, AND PREPARATION METHOD THEREFOR, PHARMACEUTICAL COMPOSITION THEREOF AND USE THEREOF” (DALIAN WZ PROBIOTICS AD HEALTH CO., LTD, priority 2020, published 2024)
Counter-ions that a name gives are not always drawn. Like-named read-outs stand apart in the source and are kept apart here.

Legend:
NCI-H460 = experiment: Inhibition test on cell proliferation (MTT), NCI-H460; assay type: cell-based, human
Protocol: (§1) Tumor cells (NCI-H460, BxPC-3, HT-29, HCC-LM3) in the logarithmic growth phase were digested, centrifuged, and the supernatants were removed. Cells were resuspended by adding fresh culture medium, and counted using a cell counting plate. 100 μL of culture medium (containing cells) was added to a 96-well plate according to the standard of 2000 to 6000 cells per well and incubated in an incubator (37° C., 5% CO2) for 24 hours. After the cells were completely adhered to the wall, the test sample and Plinabulin were diluted to different concentrations using fresh culture medium, and 4 wells were set for each concentration. After 72 hours of drug treatment, the culture medium was removed, and 20 μL of MTT at a concentration of 5 mg/mL was added to each well. After 3-4 hours in the incubator, the MTT was discarded, and 100 μL of DMSO was added to each well, and placed in a 96-well plate shaker to completely dissolve the purple formazan. Subsequently, the absorbance (OD value) was detected at a wavelength of 490 nm using a microplate reader. The experiment also required setting up zero-setting wells (blank culture medium, MTT, DMSO). Cell inhibition rate=1−(OD value of drug-dosed group−OD value of zero-setting group)/(OD value of blank group−OD value of zero-setting group)×100%.

BxPC-3 = experiment: Inhibition test on cell proliferation (MTT), BxPC-3; assay type: cell-based, human; details: read-out: IC50 (nM) BxPC-3
Protocol: as §1

HCC-LM3 = experiment: Inhibition test on cell proliferation (MTT), HCC-LM3; assay type: cell-based, human; details: read-out: IC50 (nM) HCC-LM3
Protocol: as §1

HT-29 = experiment: Inhibition test on cell proliferation (MTT), HT-29; assay type: cell-based, human; details: 72 hours of drug treatment
Protocol: as §1

[1] = 72 hours of drug treatment, MTT, mesylate, read-out: IC50 (nM) NCI-H460
[2] = 72 hours of drug treatment, MTT, mesylate
[3] = 72 hours of drug treatment, MTT
[4] = Homo sapiens, NCI-H460, 72 h, 72 hours of drug treatment, MTT, read-out: IC50 (nM) NCI-H460
[5] = Homo sapiens, BXPC-3, 72 h, 72 hours of drug treatment, MTT
[6] = Homo sapiens, HCCLM3, 72 h, 72 hours of drug treatment, MTT
[7] = 72 hours of drug treatment, MTT, hydrochloride, read-out: IC50 (nM) NCI-H460
[8] = 72 hours of drug treatment, MTT, hydrochloride

For `CC(C)c1c(/C=c2\[nH]c(=O)/c(=C/c3cc(F)cc(F)c3)[nH]c2=O)ncn1CCCN1CCOCC1` [PLN-2-62-2, (3Z,6Z)-3-(3,5-Difluorophenyl)methylene-6-((5-isopropyl-1-(3-morpholinyl)propylimidazol-4-yl)methylene)piperazine-2,5-dione, mesylate], the IC50 (NCI-H460; [1]) was 4.6 ± 1.33 nM, the IC50 (BxPC-3; [2]) was 3.66 ± 1.15 nM and the IC50 (HCC-LM3; [2]) was 3.99 ± 0.08 nM. It also gave an IC50 (HT-29; mesylate) of 3.55 ± 0.04 nM.
With `CC(C)c1c(/C=c2\[nH]c(=O)/c(=C/c3cccc(Oc4ccc(F)cc4)c3)[nH]c2=O)ncn1CCCN1CCOCC1` (as salt: hydrochloride) [PLN-2-2-1] the melting point was 173 to 175 °C.
In the case of `C=CC(=O)N1CCN(CCCn2cnc(/C=c3\[nH]c(=O)/c(=C/c4cccc(F)c4)[nH]c3=O)c2C(C)C)CC1` [PLN-2-61-1], the IC50 (NCI-H460; 72 hours of drug treatment, MTT, read-out: IC50 (nM) NCI-H460) is reported as 16.9 ± 1.29 nM, the IC50 (BxPC-3; [3]) is reported as 9.37 ± 0.78 nM and the IC50 (HCC-LM3; [3]) is reported as 16.5 ± 5.66 nM. For the same molecule, the IC50 (HT-29) was 14 ± 0.58 nM and the melting point was 238.6 to 240.6 °C.
For `CC(C)c1c(/C=c2\[nH]c(=O)/c(=C/c3cccc(F)c3)[nH]c2=O)ncn1CCCN1CCOC(COCc2ccccc2)C1` (stereo not shown) [PLN-2-60, (3Z,6Z)-3-(3-Fluorophenyl)methylene-6-(5-isopropyl-1-(3-(2-(benzyloxymethyl)morpholinyl)propylimidazol-4-yl)methylene)piperazine-2,5-dione], the IC50 (NCI-H460; Homo sapiens, NCI-H460, 72 h, read-out: IC50 (nM) NCI-H460, 72 hours of drug treatment, MTT) was 59.67 ± 0.3 nM, the IC50 (BxPC-3; Homo sapiens, BXPC-3, 72 h) was 27.2 ± 1.42 nM and the IC50 (HCC-LM3; Homo sapiens, HCCLM3, 72 h) was 49.2 ± 1.3 nM. The melting point was 157 to 159 °C.
For `CC(C)c1c(/C=c2\[nH]c(=O)/c(=C/c3ccccc3)[nH]c2=O)ncn1CCCN1CCOCC1` (as salt: hydrochloride) [PLN-2-5-1, (3Z,6Z)-3-Benzylidene-6-((5-isopropyl-1-(3-morpholinyl)propylimidazol-4-yl)methylene)piperazine-2,5-dione, hydrochloride], the melting point was 220 to 222 °C.
In the case of `CC(C)c1c(/C=c2\[nH]c(=O)/c(=C/c3cccc(F)c3)[nH]c2=O)ncn1CCCN1CCO[C@@H](C)C1` (as salt: hydrochloride) [PLN-2-57-1, (3Z,6Z)-3-(3-Fluorophenyl)methylene-6-(5-isopropyl-1-(3-S)—(−2-methylmorpholinyl)propylimidazol-4-yl)methylene)piperazine-2,5-dione, hydrochloride], the melting point is reported as 232.2 to 234.2 °C.
With `O=c1[nH]/c(=C\c2ncn(CCCN3CCOCC3)c2C2CC2)c(=O)[nH]/c1=C\c1ccccc1` [PLN-2-6, (3Z,6Z)-3-benzylidene-6-((5-cyclopropyl-1-(−3-morpholinyl)propylimidazol-4-yl)methylene)piperazine-2,5-dione] the IC50 (NCI-H460; [4]) was 33.5 ± 0.46 nM, the IC50 (BxPC-3; [5]) was 27.7 ± 0.94 nM and the IC50 (HCC-LM3; [6]) was 16.6 ± 0.66 nM. For the same molecule, the IC50 (HT-29; Homo sapiens, HT-29, 72 h) was 25.3 ± 3.54 nM.
With `O=c1[nH]/c(=C\c2ncn(CCCN3CCOCC3)c2C2CC2)c(=O)[nH]/c1=C\c1cccc(F)c1` [PLN-2-10-2, (3Z,6Z)-3-(3-Fluorophenyl)methylene-6-((5-cyclopropyl-1-(3-morpholinyl)propylimidazol-4-yl)methylene)piperazine-2,5-dione, mesylate] the IC50 (NCI-H460; [1]) was 11.2 ± 2.04 nM, the IC50 (BxPC-3; [2]) was 12.6 ± 0.96 nM and the IC50 (HCC-LM3; [2]) was 13.3 ± 4.02 nM. It also gave an IC50 (HT-29; mesylate) of 13.2 ± 2.15 nM.
Work on `CCCOCC1CN(CCCn2cnc(/C=c3\[nH]c(=O)/c(=C/c4cccc(F)c4)[nH]c3=O)c2C(C)C)CCO1` (stereo not shown) [PLN-2-59, (3Z,6Z)-3-(3-fluorophenyl)methylene-6-(5-isopropyl-1-(3-(2-(propoxymethyl)morpholinyl)propylimidazol-4-yl)methylene)piperazine-2,5-dione] yielded an IC50 (NCI-H460; [4]) of 27.4 ± 0.52 nM, an IC50 (BxPC-3; [5]) of 15.5 ± 0.74 nM and an IC50 (HCC-LM3; [6]) of 23.3 ± 2.49 nM. It also gave a melting point of 178 to 180 °C.
Work on `CC(C)c1c(/C=c2\[nH]c(=O)/c(=C/c3cccc(Oc4ccc(F)cc4)c3)[nH]c2=O)ncn1CCCN1CCNCC1` [PLN-2-18] yielded an IC50 (NCI-H460; [4]) of 99.72 ± 0.82 nM and a melting point of 176 to 178 °C.
In the case of `CC(C)c1c(/C=c2\[nH]c(=O)/c(=C/c3cccc(F)c3)[nH]c2=O)ncn1CCCN1CCO[C@@H](C)C1` [PLN-2-57-1, (3Z,6Z)-3-(3-Fluorophenyl)methylene-6-(5-isopropyl-1-(3-S)—(−2-methylmorpholinyl)propylimidazol-4-yl)methylene)piperazine-2,5-dione, hydrochloride], the IC50 (NCI-H460; [7]) is reported as 17.5 ± 0.71 nM, the IC50 (BxPC-3; [8]) is reported as 14.1 ± 1.23 nM and the IC50 (HCC-LM3; [8]) is reported as 12.9 ± 1.61 nM. For the same molecule, the IC50 (HT-29; hydrochloride) was 10.6 ± 3.68 nM.
Work on `CC(C)c1c(/C=c2\[nH]c(=O)/c(=C/c3cccc(F)c3)[nH]c2=O)ncn1CCCN1CCOCC1` [PLN-2-9-2, mesylate] yielded an IC50 (NCI-H460; [1]) of 8.49 ± 0.72 nM, an IC50 (BxPC-3; [2]) of 5.14 ± 0.52 nM and an IC50 (HCC-LM3; [2]) of 6.08 ± 0.51 nM. It also gave an IC50 (HT-29; mesylate) of 5.84 ± 1.66 nM.
Molecule `CC(C)c1c(/C=c2\[nH]c(=O)/c(=C/c3cccc(C(=O)c4ccc(F)cc4)c3)[nH]c2=O)ncn1CCCN1CCOCC1` [PLN-2-1-2, (3Z,6Z)-3-(3-(p-Fluorobenzoyl)phenyl)methylene-6-((5-isopropyl-1-(3-morpholinyl)propylimidazol-4-yl)methylene)piperazine-2,5-dione, mesylate] has an IC50 (NCI-H460; [4]) of 1.95 ± 0.08 nM, an IC50 (BxPC-3; [5]) of 1.33 ± 0.19 nM and an IC50 (HCC-LM3; [2]) of 1.85 ± 0.27 nM. It also gave an IC50 (HT-29; Homo sapiens, HT-29, 72 h) of 1.42 ± 0.46 nM.
Work on `CC(C)c1c(/C=c2\[nH]c(=O)/c(=C/c3cccc(F)c3)[nH]c2=O)ncn1CCCN1CCO[C@H](C)C1` [PLN-2-56-1, (3Z,6Z)-3-(3-Fluorophenyl)methylene-6-(5-isopropyl-1-(3-(R)-(2-methylmorpholinyl)propylimidazol-4-yl)methylene)piperazine-2,5-dione, hydrochloride] yielded an IC50 (NCI-H460; [7]) of 7.69 ± 0.28 nM, an IC50 (BxPC-3; [8]) of 4.99 ± 0.19 nM and an IC50 (HCC-LM3; [8]) of 4.72 ± 0.73 nM. For the same molecule, the IC50 (HT-29; hydrochloride) was 4.43 ± 0.13 nM.
For `CC(C)c1c(/C=c2\[nH]c(=O)/c(=C/c3cc(F)ccc3F)[nH]c2=O)ncn1CCCN1CCOCC1` (as salt: hydrochloride) [PLN-2-7-1, (3Z,6Z)-3-(2,5-Difluorophenyl)methylene-6-((5-isopropyl-1-(3-morpholinyl)propylimidazol-4-yl)methylene)piperazine-2,5-dione, hydrochloride], the melting point was 174 to 176 °C.
Molecule `CCOCC1CN(CCCn2cnc(/C=c3\[nH]c(=O)/c(=C/c4cccc(F)c4)[nH]c3=O)c2C(C)C)CCO1` (stereo not shown) [PLN-2-58, (3Z,6Z)-3-(3-Fluorophenyl)methylene-6-(5-isopropyl-1-(3-(2-(ethoxymethyl)morpholinyl)propylimidazol-4-yl)methylene)piperazine-2,5-dione] has an IC50 (NCI-H460; [4]) of 11.8 ± 1.82 nM, an IC50 (BxPC-3; [5]) of 8.1 ± 1.44 nM and an IC50 (HCC-LM3; [6]) of 16.7 ± 0.98 nM. For the same molecule, the melting point was 202 to 204 °C.
In the case of `CC(C)c1c(/C=c2\[nH]c(=O)/c(=C/c3cccc(F)c3)[nH]c2=O)ncn1CCCN1CCO[C@H](C)C1` (as salt: hydrochloride) [PLN-2-56-1, (3Z,6Z)-3-(3-Fluorophenyl)methylene-6-(5-isopropyl-1-(3-(R)-(2-methylmorpholinyl)propylimidazol-4-yl)methylene)piperazine-2,5-dione, hydrochloride], the melting point is reported as 232.8 to 234.8 °C.
In the case of `O=c1[nH]/c(=C\c2ncn(CCCN3CCOCC3)c2C2CC2)c(=O)[nH]/c1=C\c1cc(F)ccc1F` [PLN-2-8, (3Z,6Z)-3-(2,5-difluorophenyl)methylene-6-((5-cyclopropyl-1-(−3-morpholinyl)propylimidazol-4-yl)methylene)piperazine-2,5-dione], the IC50 (NCI-H460; [4]) is reported as 15.2 ± 2.82 nM, the IC50 (BxPC-3; [5]) is reported as 8.8 ± 0.16 nM and the IC50 (HT-29; Homo sapiens, HT-29, 72 h) is reported as 13.4 ± 2.08 nM.
`CC(C)c1c(/C=c2\[nH]c(=O)/c(=C/c3cccc(C(=O)c4ccc(F)cc4)c3)[nH]c2=O)ncn1CCCN1CCN(C)CC1` [PLN-2-21, (3Z,6Z)-3-(3-(p-fluorobenzoyl)phenyl)methylene-6-((5-isopropyl-1-(3-N-methylpiperazinyl)propylimidazol-4-yl)methylene)piperazine-2,5-dione] showed an IC50 (NCI-H460; [4]) of 23.9 ± 1.02 nM, an IC50 (BxPC-3; [5]) of 15.3 ± 1.83 nM and an IC50 (HT-29; Homo sapiens, HT-29, 72 h) of 13.8 ± 3.08 nM.
For `CC(C)c1c(/C=c2\[nH]c(=O)/c(=C/c3cccc(C(=O)c4ccc(F)cc4)c3)[nH]c2=O)ncn1CCCN1CCN(C(=O)C2CCC2)CC1` [PLN-2-36, (3Z,6Z)-3-(3-(p-fluorobenzoyl)phenyl)methylene-6-((5-isopropyl-1-(3-N-cyclobutanoylpiperazinyl)propylimidazol-4-yl)methylene)piperazine-2,5-dione], the IC50 (NCI-H460; [4]) was 4.31 ± 0.59 nM, the IC50 (BxPC-3; [5]) was 2.25 ± 1.22 nM and the IC50 (HT-29; Homo sapiens, HT-29, 72 h) was 2.97 ± 0.51 nM.
